Laboratory results published in patent US12016858B2, “Methods for the treatment of abnormal involuntary movement disorders” (AUSPEX PHARMACEUTICALS, INC., priority 2015, dated 2024).
Read-outs that look alike come from different tables or passages of the source.

Tests used:
[1] = system: subjects with chorea associated with HD
Experimental: First-HD was a randomized, double-blind, placebo-controlled, parallel-group study designed to evaluate the efficacy, safety, and tolerability of deutetrabenazine in subjects with chorea associated with HD. This trial was conducted in the United States and Canada, in collaboration with the Huntington Study Group.
Subjects in First-HD were treated with deutetrabenazine or placebo, starting at 6 mg once per day and titrating weekly to doses of up to 24 mg twice per day (48 mg total maximum daily dose). A total of 90 subjects (45 in each group) were enrolled for evaluation over 13 weeks. Subjects were individually titrated to an optimal dose over up to eight weeks, received maintenance therapy at the optimal dose for four weeks, and were taken off study medication in the final week of the trial.
The primary efficacy endpoint for the study was the change from baseline to maintenance therapy (average of Week 9 and Week 12 values) in the maximal chorea score of the UHDRS. The total maximal score, or TMC, is a clinician-based, quantitative assessment of chorea in seven body regions: face, mouth/tongue, trunk, and the four extremities, with higher scores representing more severe chorea.
The total motor score (TMS) of the UHDRS was prespecified as an additional efficacy endpoint in First-HD. The TMS assesses all the motor features of HD, including items addressing characteristic motor abnormalities other than chorea, such as dystonia, gait, parkinsonism, and postural instability.
The clinical relevance of the change in the TMC score was assessed with four prespecified secondary endpoints that assessed changes from baseline to end of treatment (Week 12). These secondary endpoints were tested in a hierarchical manner: • 1. Treatment success based on patient global impression of change (PGIC); • 2. Treatment success based on clinical global impression of change (CGIC); • 3. Physical Functioning Scale of the SF-36; and • 4. Balance, as assessed by the Berg Balance Test (BBT).
The PGIC and CGIC are single-item questionnaires that ask the subject and investigator, respectively, to assess a subject's overall HD symptoms at specific visits after initiating therapy. Both assessments use a 7-point Likert Scale, with responses ranging from Very Much Worse (−3) to Very Much Improved (+3) to assess overall response to therapy.
Adverse events (AE) and their potential association with treatment were also monitored. Categories of AEs of particular focus included those known to be associated with tetrabenazine use: • Psychiatric disorders: insomnia, depression/agitated depression, abnormal dreams, agitation, anxiety, suicidal ideation, compulsions, impulsive behavior, and sleep disorders; • Nervous system disorders: somnolence, dizziness, akathisia/restlessness, cognitive disorders, drooling, dyskinesia, migraine, headache, loss of consciousness, and syncope (fainting); • General disorders: irritability, fatigue, gait disturbance, chest pain, and hangover; and • Gastrointestinal disorders: diarrhea, dry mouth, constipation, nausea, upper abdominal pain, dyspepsia, frequent bowel movements, gastrointestinal pain, vomiting, dysphagia, flatulence, and salivary hypersecretion.
In addition to AE reporting, rating scales were used to monitor for potential subclinical toxicity due to excessive monoamine depletion. […] These scales applied in First-HD included the Hospital Anxiety and Depression Scale (HADS), the Columbia Suicide Severity Rating Scale (C-SSRS), the Swallowing Disturbance Questionnaire (SDQ), the Unified Parkinson's Disease Rating Scale (dysarthria item) (UPDRS [dysarthria]), the Barnes Akathisia Rating Scale (BARS), and the Epworth Sleepiness Scale (ESS). In addition, the UHDRS, which includes cognitive, behavioral, and functional measures, was performed at key visits.

[2] = Phase 1 pharmacokinetic comparison of deutetrabenazine and tetrabenazine; assay type: in vivo, healthy volunteer subjects; details: 24-mg dose of deutetrabenazine
Excerpt: The guidance for investigators on conversion of subjects from stable doses of tetrabenazine to deutetrabenazine in the ARC-HD Switch study was designed to minimize the risk that dose conversion would result in either loss of efficacy or increased adverse events. The conversion method applied was based on modeling and simulation of Phase 1 pharmacokinetic data for deutetrabenazine and tetrabenazine. The objective of the pharmacokinetic analysis was to identify an initial dosing regimen of deutetrabenazine predicted to provide exposure at steady state of the active α and β metabolites that was less than or equal to the predicted AUC at steady state of the active alpha and beta metabolites of tetrabenazine, but with a lower Cmax.
In a Phase 1 single-center, open-label, crossover clinical trial, each of 24 healthy volunteer subjects received single doses of 25 mg of tetrabenazine and 15 mg of deutetrabenazine. […]
Subjects in the Switch cohort completed a full screening evaluation. […] The investigator, in consultation with the subject and caregiver, determined when an adequate level of chorea control had been achieved. If a subject experienced a “clinically significant” adverse event attributable to deutetrabenazine, the investigator determined if a dose reduction or suspension was necessary.

[3] = Baseline to Maintenance Therapy, N = 45
[4] = baseline to maintenance therapy
[5] = much or very much improved, Week 12, N = 45

[2H]C([2H])([2H])Oc1cc2c(cc1OC([2H])([2H])[2H])C1CC(=O)C(CC(C)C)CN1CC2 (stereo not drawn) [deutetrabenazine, (RR, SS)-1,3,4,6,7,11b-hexahydro-9,10-di(methoxy-d3)-3-(2-methylpropyl)-2H-benzo[a]quinolizin-2-one]
Absolute Change in Total Maximal Chorea Score, Least Squares Mean (SD) ([1]; Baseline to Maintenance Therapy (mean of Week 9 and Week 12), N = 45): −4.4 (3.0)
Percentage Change in Total Maximal Chorea Score, Least Squares Mean (SD) [1, 3]: −37 (25.7) %
Total Motor Score change, Least Squares Mean (SD) [1, 3]: −7.4 (6.3)
Absolute Change in Total Maximal Chorea Score, Difference in Means (DTBZ − Placebo and 95% CI) ([1]; Baseline to Maintenance Therapy, listed as DTBZ): −2.5 (−3.7, −1.3)
Change in BBT Score, Difference in Means (DTBZ-Placebo) ([1]; Baseline to Week 12): 1.0
Change in SF-36 Physical Functioning Score, Difference in Means (DTBZ − Placebo) and 95% CI ([1]; Baseline to Week 12): 4.3
SF-36 physical functioning score compared with placebo-treated subjects ([1]; Baseline to Week 12): greater improvement in physical function
Change in Berg Balance Test Score, Least Squares Mean ([1]; Baseline to Week 12, N = 45): 2.2
Change in SF-36 Physical Functioning Score, Least Squares Mean (SD) ([1]; Baseline to Week 12, N = 45): 0.74
Change in SF-36 Physical Functioning Score, Least Squares Mean (SD) ([1]; Baseline to Week 12, N = 45, listed as DTBZ): 0.74 (9.773)
Change in SF-36 Physical Functioning Score, Difference in Means (DTBZ − Placebo) and 95% CI ([1]; Baseline to Week 12, listed as DTBZ): 4.34 (0.41, 8.27)
CGIC Treatment Success, Difference in Percentages (DTBZ − Placebo) and 95% CI ([1]; End of Therapy): 29 (11.4, 46.4) %
PGIC Treatment Success, Difference in Percentages (DTBZ − Placebo) and 95% CI ([1]; End of Therapy): 31 (12.4, 49.8) %
Any Nervous System Disorders TEAE ([1]; N = 45): 8 (17.8) n (%)
Any Psychiatric Disorders TEAE ([1]; N = 45): 8 (17.8) n (%)
Any Serious TEAEs ([1]; N = 45): 1 (2.2) n (%)
Any TEAE that led to Withdrawal from the Study ([1]; N = 45): 1 (2.2) n (%)
Any TEAEs Resulting in Dose Reduction ([1]; N = 45): 3 (6.7) n (%)
Any TEAEs Resulting in Dose Suspension ([1]; N = 45): 1 (2.2) n (%)
Any Treatment-Emergent AEs (TEAEs) ([1]; N = 45): 60.0 n (%)
TEAE Abdominal pain upper ([1]; N = 45): 1 (2.2) n (%)
TEAE Abnormal Dreams ([1]; N = 45): 1 (2.2) n (%)
TEAE Agitation ([1]; N = 45): 1 (2.2) n (%)
TEAE Akathisia/Restlessness ([1]; N = 45): 1 (2.2) n (%)
TEAE Anxiety ([1]; N = 45): 1 (2.2) n (%)
TEAE Chest pain ([1]; N = 45): 1 (2.2) n (%)
TEAE Cognitive Disorder ([1]; N = 45): 1 (2.2) n (%)
TEAE Compulsions ([1]; N = 45): 0 n (%)
TEAE Constipation ([1]; N = 45): 2 (4.4) n (%)
TEAE Depression/Agitated Depression ([1]; N = 45): 2 (4.4) n (%)
TEAE Diarrhea ([1]; N = 45): 4 (8.9) n (%)
TEAE Dizziness ([1]; N = 45): 2 (4.4) n (%)
TEAE Drooling ([1]; N = 45): 1 (2.2) n (%)
TEAE Dry mouth ([1]; N = 45): 4 (8.9) n (%)
TEAE Dyskinesia ([1]; N = 45): 1 (2.2) n (%)
TEAE Dyspepsia ([1]; N = 45): 1 (2.2) n (%)
TEAE Dysphagia ([1]; N = 45): 0 n (%)
TEAE Fatigue ([1]; N = 45): 3 (6.7) n (%)
TEAE Flatulence ([1]; N = 45): 0 n (%)
TEAE Frequent bowel movements ([1]; N = 45): 1 (2.2) n (%)
TEAE Gait disturbance ([1]; N = 45): 1 (2.2) n (%)
TEAE Gastrointestinal pain ([1]; N = 45): 1 (2.2) n (%)
TEAE Hangover ([1]; N = 45): 1 (2.2) n (%)
TEAE Headache ([1]; N = 45): 0 n (%)
TEAE Impulsive Behavior ([1]; N = 45): 0 n (%)
TEAE Insomnia ([1]; N = 45): 3 (6.7) n (%)
TEAE Irritability ([1]; N = 45): 3 (6.7) n (%)
TEAE Loss of Consciousness ([1]; N = 45): 0 n (%)
TEAE Migraine ([1]; N = 45): 1 (2.2) n (%)
TEAE Nausea ([1]; N = 45): 1 (2.2) n (%)
TEAE Salivary hypersecretion ([1]; N = 45): 0 n (%)
TEAE Sleep disorder ([1]; N = 45): 0 n (%)
TEAE Somnolence ([1]; N = 45): 11.1 n (%)
TEAE Suicidal Ideation ([1]; N = 45): 1 (2.2) n (%)
TEAE Syncope ([1]; N = 45): 0 n (%)
TEAE Vomiting ([1]; N = 45): 0 n (%)
Any Treatment-Emergent AEs (TEAEs) ([1]; N = 45, listed as DTBZ): 27 (60.0) n (%)
TEAE Somnolence ([1]; N = 45, listed as DTBZ): 5 (11.1) n (%)
Absolute Change in Total Maximal Chorea Score, Difference in Means (DTBZ − Placebo and 95% CI) [1, 4]: −2.5
Percentage Change in Total Maximal Chorea Score, Difference in Means (DTBZ − Placebo and 95% CI) [1, 4]: −21 (−30.5, −11.1) %
TMC improved [1, 4]: 37%
Total Motor Score change, Difference in Means (DTBZ − Placebo) and 95% CI [1, 4]: −4.0 (−6.5, −1.5)
improvement in the TMS compared with placebo [1, 4]: 4.0 units
reduction in maximal chorea compared with placebo [1, 4]: 21 percentage points
reduction on the TMC score compared with placebo [1, 4]: 2.5 units
total maximal dystonia score improvement [1, 4]: 0.9 (SE 0.24) points
UHDRS Behavioral Assessment (Part III) mean total behavior score compared with the placebo group ([1]; difference did not achieve statistical significance): improvement in the in the mean total behavior score
AEs of parkinsonism or dysphagia ([1]; in vivo): no AEs of parkinsonism or dysphagia were reported
balance (Berg Balance Test) at end of treatment ([1]; in vivo): did not worsen balance
changes in the parkinsonism subscore (UHDRS motor) vs placebo ([1]; in vivo): no significant difference
hypotension, dizziness, or orthostasis (vital signs) ([1]; in vivo): no evidence that hypotension, dizziness, or orthostasis was associated
parkinsonism subscore of the UHDRS Motor Assessment (Part I) ([1]; in vivo): did not identify evidence of parkinsonism
safety scales (HADS, C-SSRS, UPDRS dysarthria, BARS, ESS) ([1]; in vivo): did not cause depression, anxiety, suicidality, akathisia, somnolence, or difficulty speaking
somnolence, drug-placebo difference ([1]; in vivo): 6.7%
tolerability ([1]; in vivo): generally well tolerated
Clinical Global Impression of Change: Treatment Success at the End of Therapy [1, 5]: 42%
Patient Global Impression of Change: Treatment Success at the End of Therapy [1, 5]: 51%
SF-36 physical functioning mean improvement over placebo ([1]; subjects with more severe chorea at baseline (TMC>12; n=49)): 7.1 units
peak concentration (Cmax) vs 50 mg of tetrabenazine [2]: lower peak concentration (Cmax)
systemic exposure (AUC) [2]: comparable systemic exposure (AUC) to 50 mg of tetrabenazine
